Patent publication US11236055B2 (Venenum Biodesign, LLC, priority 2016, dated 2022)

How the values were obtained:
mouse TGR5 receptor = molecular target: T1, mouse TGR5 receptor (Mus musculus, UniProt Q80SS6); experiment: Mouse TGR5 cAMP production assay (HTRF, Cisbio cAMP HiRange); format: cell-based; settings: HEK293-EBNA cells overexpressing mouse TGR5, HTRF cAMP HiRange; coded A-D
T1 construct: expressed in transfected cells; host or cells: HEK293-EBNA (293 c18, ATCC CRL10852), Hygromycin B selection
T1 sequence (Q80SS6 1-329): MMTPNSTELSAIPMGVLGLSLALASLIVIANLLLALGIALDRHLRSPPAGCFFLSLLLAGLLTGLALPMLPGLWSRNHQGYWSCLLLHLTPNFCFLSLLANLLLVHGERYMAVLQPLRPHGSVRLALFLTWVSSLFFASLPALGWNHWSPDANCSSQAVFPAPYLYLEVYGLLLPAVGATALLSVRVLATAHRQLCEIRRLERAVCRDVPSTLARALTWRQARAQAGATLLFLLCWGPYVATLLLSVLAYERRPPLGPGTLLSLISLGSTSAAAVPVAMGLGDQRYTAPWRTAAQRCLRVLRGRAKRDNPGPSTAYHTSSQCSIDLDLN
Procedure, shortened: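 cAMP read by HTRF competition after 1 h room-temperature compound exposure of mouse TGR5-overexpressing HEK293-EBNA cells. Cells were suspended in serum-free DMEM containing 500 μM IBMX; compounds ran as 12-point half-log dilutions in duplicate; EC50 derived.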

human TGR5 receptor = molecular target: T2, human TGR5 receptor (Homo sapiens, UniProt Q8TDU6); experiment: Human TGR5 cAMP production assay; format: cell-based; settings: human TGR5, luminescent cAMP assay; coded A-D; read-out: Human TGR5 Lum. cAMP Activity (EC50)
T2 construct: host or cells: CHO-K1 (hTGR5-CHO cells)
T2 sequence (Q8TDU6 1-330): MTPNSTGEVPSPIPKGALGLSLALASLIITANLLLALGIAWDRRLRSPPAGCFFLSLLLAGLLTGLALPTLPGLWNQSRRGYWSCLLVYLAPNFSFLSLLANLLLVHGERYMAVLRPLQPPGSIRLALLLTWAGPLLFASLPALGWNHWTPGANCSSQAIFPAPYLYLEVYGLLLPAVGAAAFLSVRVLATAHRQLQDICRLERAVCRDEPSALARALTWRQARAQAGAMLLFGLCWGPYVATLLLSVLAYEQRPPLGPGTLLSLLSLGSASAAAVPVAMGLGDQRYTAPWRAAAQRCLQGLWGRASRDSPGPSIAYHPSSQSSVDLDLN
Procedure, shortened: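 CHO-K1 cells stably expressing human TGR5, with IBMX and cAMP antibody, were exposed to half-log serially diluted compound for 1 h at room temperature. cAMP measured by enzyme-fragment complementation luminescence (XS+ kit) after overnight incubation; EC50 values reported.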

EC50 (mouse TGR5 receptor)	EC50 (human TGR5 receptor)	SMILES
< 100 nM	< 100 nM	Cc1cnccc1-c1cccc(C(C)(C)N(CCCC(=O)O)S(=O)(=O)c2ccccc2C(F)(F)F)c1 [Compound 14, 4-(N-(2-(3-(3-methylpyridin-4-yl)phenyl)propan-2-yl)-2-(trifluoromethyl)phenylsulfonamido)butanoic acid]
< 100 nM	< 100 nM	CCc1cnccc1-c1cccc([C@H](C)N(CCCC(=O)NCCS(=O)(=O)O)S(=O)(=O)c2ccccc2C)c1 [Compound 20AR, (S)-2-(4-(N-(1-(3-(3-ethylpyridin-4-yl)phenyl)ethyl)-2-methylphenyl-sulfonamido)butanamido)ethane sulfonic acid]
< 100 nM	< 100 nM	Cc1cnccc1-c1cccc([C@H](C)N(CCCCC(=O)NCCS(=O)(=O)NCCC(=O)O)S(=O)(=O)c2ccccc2C(F)(F)F)c1 [Compound 20BM]
< 100 nM	< 100 nM	Cc1cnccc1-c1cccc([C@H](C)N(CCCCNC(=O)NCS(=O)(=O)O)S(=O)(=O)c2ccccc2C(F)(F)F)c1 [Compound 28AC, (S)-(3-(4-(N-(1-(3-(3-methylpyridin-4-yl)phenyl)ethyl)-2-(trifluoromethyl)phenylsulfonamido)butyl)ureido)methanesulfonic acid]
< 100 nM	< 100 nM	CCc1cnccc1-c1cccc([C@H](C)N(CCCC(=O)NCCS(=O)(=O)NCC(=O)O)S(=O)(=O)c2ccccc2C)c1 [Compound 20BU, (S)-2-(4-(2-methyl-N-(1-(3-(3-ethylpyridin-4-yl)phenyl)ethyl)phenylsulfonamido)butanamidoethylsulfonamido)acetate]
< 100 nM	< 100 nM	CCc1cnccc1-c1cccc([C@H](C)N(CCCC(=O)NCCNS(N)(=O)=O)S(=O)(=O)c2cccc(Cl)c2C)c1 [Compound 37AA, (S)-4-(3-chloro-N-(1-(3-(3-ethylpyridin-4-yl)phenyl)ethyl)-2-methylphenylsulfonamido)-N-(2-(sulfamoylamino)ethyl)butanamide]
< 100 nM	< 100 nM	CCc1cnccc1-c1cccc([C@H](C)N(CCCC(=O)NCCS(=O)(=O)O)S(=O)(=O)c2ccccc2C(F)(F)F)c1 [Compound 20BF, (S)-2-(4-(N-(1-(3-(3-ethylpyridin-4-yl)phenyl)ethyl)-2-(trifluoromethyl)phenylsulfonamido)butanamido)ethanesulfonic acid]
< 100 nM	< 100 nM	Cc1cnccc1-c1cccc([C@H](C)N(CCCC(=O)NCCNS(=O)(=O)CCC(=O)O)S(=O)(=O)c2cccc(Cl)c2C)c1 [Compound 26AB]
< 100 nM	< 100 nM	CCc1cnccc1-c1cccc([C@H](C)N(CCCCNC(=O)NCS(=O)(=O)O)S(=O)(=O)c2ccccc2C(F)(F)F)c1 [Compound 28AH, (S)-(3-(4-(N-(1-(3-(3-ethylpyridin-4-yl)phenyl)ethyl)-2-(trifluoromethyl)phenylsulfonamido)butyl)ureido)methanesulfonic acid]
< 100 nM	< 100 nM	Cc1cnccc1-c1cccc([C@H](C)N(CCCC(=O)NCCS(=O)(=O)NCC(=O)O)S(=O)(=O)c2cccc(Cl)c2C)c1 [Compound 21AN, (S) 2-(3-(4-(3-chloro-2-methyl-N-(1-(3-(3-methylpyridin-4-yl)phenyl)ethyl)phenylsulfonamido)butanamido)ethylsulfonamido)acetic acid]
< 100 nM	< 100 nM	Cc1cnccc1-c1cccc([C@H](C)N(CCCCNC(=O)CS(=O)(=O)O)S(=O)(=O)c2ccccc2C(F)(F)F)c1 [Compound 31AA, (S)-2-((4-(N-(1-(3-(3-methylpyridin-4-yl)phenyl)ethyl)-2-(trifluoromethyl)phenylsulfonamido)butyl)amino)-2-oxoethanesulfonic acid]
–	< 100 nM	Cc1cnccc1-c1cccc(C(C)(C)NS(=O)(=O)c2cccc(C(F)(F)F)c2)c1 [Compound 5AA, N-(2-(3-(3-methylpyridin-4-yl)phenyl)propan-2-yl)-3-(trifluoromethyl)benzenesulfonamide]
